# Measurements as given in patent publication US7393828B2, “Modified MscL protein channel” (Applied NanoSystems B.V., priority 2003, dated 2008).
# Columns and labels:
# [1] = target: MscL channel protein (G22C, cysteine at 22nd position) (Escherichia coli, UniProt P0A742, G22C); conditions: for channel activity of modified protein in response to pH: same sample in the same buffer at different pHs; for pH at which channel activity starts: buffers at different pHs
# Text: All synthesized compounds were attached to the MscL protein from E. coli via cysteine modification. In this example, the 22nd position of the protein was mutated to a cysteine.
# A membrane pellet fraction was obtained from a fermentor culture of E. coli pB104 cells containing the plasmid PB104 carrying the MscL(G22C)-6His construct. MscL was isolated to near homogeneity via a single nickel-nitriloacetic acid (Ni-NTA) metal-affinity chromatography step.
# The protein modification reaction was stopped and the excess label was removed by applying the sample into a gel filtration column. The protein concentration of elution fractions was determined by Bradford Assay.
# The modified protein was reconstituted in synthetic lipid membranes in order to follow the channel activity. For this purpose, DOPC:Cholesterol:DSPE-PEG (70:20:10 Molar ratio) liposomes were titrated with Triton-X100 until saturation. Titrated liposomes were mixed with modified protein in 1:120 (wt:wt) protein to lipid ratio. Biobeads were used to remove the detergent. A self-quenching dye, calcein, was added and included into the interior of the proteoliposomes during reconstitution.
# Proteoliposomes containing modified MscL protein were analyzed by a fluorescent dye efflux assay. The activity of the channel was measured as an increase in the fluorescence of a reporter molecule, the dye calcein. Calcein is included in the liposome interior at a self-quenching concentration, but when the calcein escapes into the exterior medium, the dilution is such that quenching is completely abolished.
# During reconstitution of the protein into the mixture of synthetic lipids in the presence of a detergent, a self-quenching dye, calcein, is also added into the mixture to a final concentration of 50 mM. After the reconstitution is completed by the removal of the detergent, the calcein-containing liposomal fraction was separated from the unencapsulated free calcein by passing the sample through a Sephadex G50 size exclusion column (FIG. 7A).
# A portion of the liposomal fraction is placed in 2 ml iso-osmotic buffer and the activity of the channels is followed by measuring the increase in fluorescence as calcein becomes dequenched upon being released through the channel protein in response to a stimulus (FIG. 7B). Fluorescence was monitored with a SLM 500 spectrofluorometer Excitation and emission wavelengths were 490 (slit 2 nm) and 520 nm (slit 4 nm), respectively. A positively charged MTS reagent (MTSET) was used as a positive control.
# The MscL protein was modified with the different pH-responsive compounds. The activity of the channel in response to pH was analyzed by the calcein efflux assay. In order to do that, the same buffer at different pHs were prepared and the same sample is analyzed in each buffer.
# The MscL protein was modified with a light-sensitive compound. The activity of the channel was analyzed in response to pH. After measuring the initial fluorescence value for samples at each pH, they were exposed to 366 nm light for five to ten minutes. Then, the measurement was continued as before.
# The protein from cysteine mutant MscL (cysteine in its 22nd amino acid position) was isolated and modified as explained in Example 2, except that the light-responsive compound E (see FIG. 12c) (P6—C1[X═I]) was dissolved in DM50 and incubated with the protein at a 1:500 molar ratio (protein:compound) for 45 minutes.
# (§1) The resulting modified channel was reconstituted in the presence of a fluorescent dye as explained in Example 3 for the calcein efflux experiment. Another sample of the modified channel was prepared for patch clamp experiments as indicated in Example 6.
# The protein was isolated and modified as in Example 2 and reconstituted in the presence of calcein as indicated in Example 3.
# [2] = target: MscL channel protein (cysteine in its 22nd amino acid position) (Escherichia coli, UniProt P0A742, G22C)
# Chain of MscL channel protein (cysteine in its 22nd amino acid position) (P0A742 whole entry G22C): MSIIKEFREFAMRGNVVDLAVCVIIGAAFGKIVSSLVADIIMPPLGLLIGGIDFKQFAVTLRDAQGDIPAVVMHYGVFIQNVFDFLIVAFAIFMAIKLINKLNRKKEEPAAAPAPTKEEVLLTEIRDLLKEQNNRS
# Protocol: The activity of the chemically modified MscL is analyzed real time at the single molecule level with patch clamp, a classical electrophysiological technique. This technique allows sealing a patch of membrane, which has embedded channel proteins in it, into the tip of a glass micropipette, and monitoring the ionic current flowing through the open channels in response to different conditions.
# As a mechanosensitive channel, unmodified MscL needs a significant amount of tension on the membrane to gate. In patch clamp conditions, it corresponds to the application of negative pressure almost as high as that causing rupturing of the patched membrane.
# The channel activity was measured by following its conductance.
# The protein from cysteine mutant MscL (cysteine in its 22nd amino acid position) was isolated, modified and reconstituted as explained in Example 2. After reconstitution, giant proteoliposomes were prepared as indicated (A. H. Delcour, B. Martinac, F. R. Blattner, C. Kung, Biophys. J. 1989, 56:631-636). Ten μl rehydrated lipids were placed in 100 μl bath solution and resulting giant liposomes were patched by using glass pipettes with 1 μm tip size. They were made from 100 μl borosilicate capillaries in Sutter 97/IVF micropipette puller. Single channel recordings were performed at +20 mV in symmetrical buffer conditions in 200 mM KCl, 100 mM MgCl2, 5 mM HEPES, pH 6-8. Data were amplified and filtered in Axopatch1D amplifier and sampled in Digidata 1322A digitizer. Recordings were analyzed with pCLAMP8 software.
# as §1
# Membranes having modified channels were patched at dark or five to ten minutes after illumination with 366 nm light.
# [3] = target: double cysteine MscL mutant (22nd and 23rd positions) (Escherichia coli, UniProt P0A742, G22C/V23C)
# Chain of double cysteine MscL mutant (22nd and 23rd positions) (P0A742 whole entry G22C/V23C): as the sequence (P0A742 whole entry G22C) above, with V23C counted along it
# Text: In order to further improve modulation of the activity of chemically modified MscL, in addition to the amino acid at the 22nd position of the channel, the 23rd position is also replaced with cysteine. This way, if all the subunits are modified, one can introduce two times more charge.
# This example compares the single- and double-cysteine mutants for their performance in efflux from proteoliposomes.
# The protein from each mutant was obtained and modified with the Compound C (Q1[R1═R2=Me]-L1[n=2]—C3), as explained in Example 2, and the reconstitution for calcein efflux assay was as in Example 3.
# [4] = Solubility of the product in common solvents; assay type: physicochemical
# Chain of MscL channel protein (G22C, cysteine at 22nd position) (P0A742 whole entry G22C): as the sequence (P0A742 whole entry G22C) above
smiles,measurement,setting,value
CS(=O)(=O)SCCOC(=O)CN [compound A],channel activity at physiological pH,[1]; physiological pH,some activity
same,channel activity of modified protein in response to pH,[1],"pH-dependent activation, especially at lower pHs"
CNCC(=O)OCCSS(C)(=O)=O [compound B],pH at which channel activity starts,[1],< 8 pH
same,pKa,[1]; compound attached to MscL,approximately 8
same,channel activity of modified protein in response to pH,[1],pH-dependent activation
same,channel gating in patch clamp at pH 6.2,"[2]; pH 6.2, n=4",gated even without any applied negative pressure
same,"mean negative pressure applied (until membrane rupture, no gating)","[2]; pH 7.2, n=10",79 mmHg
same,channel activity in patch clamp at pH 7.2,"[2]; pH 7.2, n=10, negative pressure applied until the patched membrane ruptured",did not give any activity
CN(C)CC(=O)OCCSS(C)(=O)=O [compound C],pH at which channel activity starts,[1],~7.03 pH
same,"release of liposomal content at high pH, single mutant",[1]; high pH,did not release the liposomal content
same,channel activity at pH 7.5,[1]; pH 7.5,no activity
same,pH dependence of gating in patch clamp,[2]; different pHs,gated only at low pH environment
same,channel gating in patch clamp at pH 6.3,[2]; pH 6.3,spontaneous gating
same,"release of liposomal content at high pH, double mutant",[3]; high pH,did not release the liposomal content
same,"release at low pH, double mutant compared with single mutant","[3]; low pH, two separate experiments",better release
"C[N+](C)(C)CCSS(C)(=O)=O.[Br-] [MTSET, [2-(Trimethylammonium)-ethyl]-methanethiosulfonate bromide, reference compound]",channel opening after reaction with free sulfhydryl at 22nd position (positive control),[1]; MTSET 0.8 mM final concentration as trigger,always opens the channel
"COc1cc(COC(=O)CI)c([N+](=O)[O-])cc1OC [compound E, 4.5-dimethoxy-2-nitrobenzyl 2-iodoacetate]",release of fluorescent dye in the dark,"[1]; dark, iso-osmotic conditions",did not give any release
same,release of fluorescent dye after illumination,"[1]; exposed to ultraviolet light, iso-osmotic conditions",released the fluorescent dye as soon as proteoliposomes were exposed to ultraviolet light
same,channel gating in patch clamp at dark,"[2]; dark, negative pressure up to membrane rupture",no channel gating
same,channel gating in patch clamp after illumination,"[2]; five to ten minutes after illumination with 366 nm light, no tension",gated simultaneously with no tension
"COc1cc(COC(=O)NCCSS(C)(=O)=O)c([N+](=O)[O-])cc1OC [compound D, methanethiosulfonic acid S-[2-(4,5-dimethoxy-2-nitro-benzyloxycarbonylamino)-ethyl] ester]",channel activity after cleavage of the light-sensitive part,"[1]; after 366 nm light for five to ten minutes, different pHs",pH-dependent activity
same,channel activity before photolysis,"[1]; no illumination, different pHs",stayed inactive until the photolysis occurs
same,solubility in DMF and DMSO,"[4]; DMF, DMSO",soluble
same,solubility in dichloromethane and chloroform,"[4]; dichloromethane, chloroform",a little soluble
same,solubility in other common solvents,[4]; other common solvents,very badly soluble
